Measurements from PubChem BioAssay (NCI).
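All cell lines were grown in 96-well plates and treated with compound for 48 hours. GI50 marks 50% less growth. TGI: total growth inhibition.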

Key:
Test in all cases: NCI anticancer screen, dose series, 48 h
786-0 renal = test system: 786-0 renal
A498 renal = test system: A498 renal
A549 NSCLC = test system: A549 NSCLC
ACHN renal = test system: ACHN renal
BT-549 breast = test system: BT-549 breast
CAKI-1 renal = test system: CAKI-1 renal
CCRF-CEM leukemia = test system: CCRF-CEM leukemia
COLO 205 colon = test system: COLO 205 colon
DU-145 prostate = test system: DU-145 prostate
HCC-2998 colon = test system: HCC-2998 colon
HCT-116 colon = test system: HCT-116 colon
HCT-15 colon = test system: HCT-15 colon
HL-60(TB) leukemia = test system: HL-60(TB) leukemia
HOP-62 NSCLC = test system: HOP-62 NSCLC
HS 578T breast = test system: HS 578T breast
HT29 colon = test system: HT29 colon
IGROV1 ovarian = test system: IGROV1 ovarian
K-562 leukemia = test system: K-562 leukemia
KM12 colon = test system: KM12 colon
LOX IMVI melanoma = test system: LOX IMVI melanoma
M14 melanoma = test system: M14 melanoma
MALME-3M melanoma = test system: MALME-3M melanoma
MCF7 breast = test system: MCF7 breast
MDA-MB-231 breast = test system: MDA-MB-231 breast
MDA-MB-435 = test system: MDA-MB-435
MOLT-4 leukemia = test system: MOLT-4 leukemia
NCI-H226 lung = test system: NCI-H226 lung
NCI-H23 lung = test system: NCI-H23 lung
NCI-H460 lung = test system: NCI-H460 lung
NCI-H522 lung = test system: NCI-H522 lung
NCI/ADR-RES ovarian = test system: NCI/ADR-RES ovarian
OVCAR-3 ovarian = test system: OVCAR-3 ovarian
OVCAR-4 ovarian = test system: OVCAR-4 ovarian
OVCAR-5 ovarian = test system: OVCAR-5 ovarian
OVCAR-8 ovarian = test system: OVCAR-8 ovarian
PC-3 prostate = test system: PC-3 prostate
RPMI-8226 leukemia = test system: RPMI-8226 leukemia
RXF 393 renal = test system: RXF 393 renal
SF-268 CNS = test system: SF-268 CNS
SF-295 CNS = test system: SF-295 CNS
SF-539 CNS = test system: SF-539 CNS
SK-MEL-2 melanoma = test system: SK-MEL-2 melanoma
SK-MEL-28 melanoma = test system: SK-MEL-28 melanoma
SK-MEL-5 melanoma = test system: SK-MEL-5 melanoma
SK-OV-3 ovarian = test system: SK-OV-3 ovarian
SN12C renal = test system: SN12C renal
SNB-19 CNS = test system: SNB-19 CNS
SNB-75 CNS = test system: SNB-75 CNS
SW-620 colon = test system: SW-620 colon
T-47D breast = test system: T-47D breast
TK-10 renal = test system: TK-10 renal
U251 CNS = test system: U251 CNS
UACC-257 melanoma = test system: UACC-257 melanoma
UACC-62 melanoma = test system: UACC-62 melanoma
UO-31 renal = test system: UO-31 renal

Q: With `CN=c1ccc2nc3ccc(N)cc3sc-2c1` as the molecule, how does the GI50 (786-0 renal) read?
A: 10.5 µM

Q: What about the TGI (786-0 renal) of the same molecule?
A: 25.9 µM

Q: What about the GI50 (A498 renal) of the same molecule?
A: 79.5 µM

Q: What about the TGI (A498 renal) of the same molecule?
A: > 100 µM

Q: And the GI50 (A549 NSCLC)?
A: 0.714 µM

Q: And the TGI (A549 NSCLC)?
A: 13.3 µM

Q: What about the GI50 (ACHN renal) of the same molecule?
A: 2.25 µM

Q: What about the TGI (ACHN renal) of the same molecule?
A: 17.4 µM

Q: And the GI50 (BT-549 breast)?
A: 11.5 µM

Q: And the TGI (BT-549 breast)?
A: 44.4 µM

Q: What about the GI50 (CAKI-1 renal) of the same molecule?
A: 2.36 µM

Q: What about the TGI (CAKI-1 renal) of the same molecule?
A: 12.4 µM

Q: What about the GI50 (CCRF-CEM leukemia) of the same molecule?
A: 0.584 µM

Q: What about the TGI (CCRF-CEM leukemia) of the same molecule?
A: 17.9 µM

Q: And the GI50 (COLO 205 colon)?
A: 2.57 µM

Q: And the TGI (COLO 205 colon)?
A: 12.2 µM

Q: And the GI50 (DU-145 prostate)?
A: 10.7 µM

Q: What about the TGI (DU-145 prostate) of the same molecule?
A: 23.5 µM

Q: What about the GI50 (HCC-2998 colon) of the same molecule?
A: 4.32 µM

Q: And the TGI (HCC-2998 colon)?
A: 38.6 µM

Q: And the GI50 (HCT-116 colon)?
A: 1.29 µM

Q: What about the TGI (HCT-116 colon) of the same molecule?
A: 10.3 µM

Q: And the GI50 (HCT-15 colon)?
A: 1.62 µM

Q: And the TGI (HCT-15 colon)?
A: 68 µM

Q: And the GI50 (HL-60(TB) leukemia)?
A: 0.354 µM

Q: What about the TGI (HL-60(TB) leukemia) of the same molecule?
A: 1.67 µM

Q: And the GI50 (HOP-62 NSCLC)?
A: 6.8 µM

Q: What about the TGI (HOP-62 NSCLC) of the same molecule?
A: 27.3 µM

Q: And the GI50 (HS 578T breast)?
A: 17 µM

Q: What about the TGI (HS 578T breast) of the same molecule?
A: 59.6 µM

Q: What about the GI50 (HT29 colon) of the same molecule?
A: 8.44 µM

Q: And the TGI (HT29 colon)?
A: 34.3 µM

Q: And the GI50 (IGROV1 ovarian)?
A: 2.54 µM

Q: And the TGI (IGROV1 ovarian)?
A: 6.24 µM

Q: What about the GI50 (K-562 leukemia) of the same molecule?
A: 1.12 µM

Q: What about the TGI (K-562 leukemia) of the same molecule?
A: 16.7 µM

Q: And the GI50 (KM12 colon)?
A: 2.07 µM

Q: What about the TGI (KM12 colon) of the same molecule?
A: 20.1 µM

Q: And the GI50 (LOX IMVI melanoma)?
A: 1.87 µM

Q: And the TGI (LOX IMVI melanoma)?
A: 9.58 µM

Q: And the GI50 (M14 melanoma)?
A: 2.04 µM

Q: What about the TGI (M14 melanoma) of the same molecule?
A: 10.8 µM

Q: And the GI50 (MALME-3M melanoma)?
A: 1.09 µM

Q: And the TGI (MALME-3M melanoma)?
A: 3.45 µM

Q: And the GI50 (MCF7 breast)?
A: 1.63 µM

Q: And the TGI (MCF7 breast)?
A: 6.5 µM

Q: And the GI50 (MDA-MB-231 breast)?
A: 0.7 µM

Q: And the TGI (MDA-MB-231 breast)?
A: 14.3 µM

Q: And the GI50 (MDA-MB-435)?
A: 1.42 µM

Q: What about the TGI (MDA-MB-435) of the same molecule?
A: 3.24 µM

Q: And the GI50 (MOLT-4 leukemia)?
A: 1.77 µM

Q: What about the TGI (MOLT-4 leukemia) of the same molecule?
A: 6.86 µM

Q: What about the GI50 (NCI-H226 lung) of the same molecule?
A: 15.2 µM

Q: And the TGI (NCI-H226 lung)?
A: 41.4 µM

Q: And the GI50 (NCI-H23 lung)?
A: 1.83 µM

Q: What about the TGI (NCI-H23 lung) of the same molecule?
A: 12.9 µM

Q: What about the GI50 (NCI-H460 lung) of the same molecule?
A: 3.86 µM

Q: What about the TGI (NCI-H460 lung) of the same molecule?
A: > 100 µM

Q: What about the GI50 (NCI-H522 lung) of the same molecule?
A: 1.33 µM

Q: And the TGI (NCI-H522 lung)?
A: 7.97 µM

Q: What about the GI50 (NCI/ADR-RES ovarian) of the same molecule?
A: 1.6 µM

Q: And the TGI (NCI/ADR-RES ovarian)?
A: 8.44 µM

Q: What about the GI50 (OVCAR-3 ovarian) of the same molecule?
A: 1.02 µM

Q: And the TGI (OVCAR-3 ovarian)?
A: 13.8 µM

Q: What about the GI50 (OVCAR-4 ovarian) of the same molecule?
A: 0.689 µM

Q: What about the TGI (OVCAR-4 ovarian) of the same molecule?
A: 7.07 µM

Q: What about the GI50 (OVCAR-5 ovarian) of the same molecule?
A: 9.54 µM

Q: And the TGI (OVCAR-5 ovarian)?
A: 23.7 µM

Q: What about the GI50 (OVCAR-8 ovarian) of the same molecule?
A: 1.45 µM

Q: What about the TGI (OVCAR-8 ovarian) of the same molecule?
A: 10.3 µM

Q: And the GI50 (PC-3 prostate)?
A: 0.276 µM

Q: And the TGI (PC-3 prostate)?
A: 8.85 µM

Q: What about the GI50 (RPMI-8226 leukemia) of the same molecule?
A: 0.32 µM

Q: What about the TGI (RPMI-8226 leukemia) of the same molecule?
A: 18 µM

Q: And the GI50 (RXF 393 renal)?
A: 8.29 µM

Q: And the TGI (RXF 393 renal)?
A: 23.9 µM

Q: And the GI50 (SF-268 CNS)?
A: 2.84 µM

Q: What about the TGI (SF-268 CNS) of the same molecule?
A: 17.1 µM

Q: And the GI50 (SF-295 CNS)?
A: 0.962 µM

Q: And the TGI (SF-295 CNS)?
A: 3.79 µM

Q: And the GI50 (SF-539 CNS)?
A: 1.75 µM

Q: And the TGI (SF-539 CNS)?
A: 5.86 µM

Q: And the GI50 (SK-MEL-2 melanoma)?
A: 11 µM

Q: What about the TGI (SK-MEL-2 melanoma) of the same molecule?
A: 30.9 µM

Q: And the GI50 (SK-MEL-28 melanoma)?
A: 7.36 µM

Q: What about the TGI (SK-MEL-28 melanoma) of the same molecule?
A: 24.1 µM

Q: And the GI50 (SK-MEL-5 melanoma)?
A: 0.448 µM

Q: And the TGI (SK-MEL-5 melanoma)?
A: 1.88 µM

Q: And the GI50 (SK-OV-3 ovarian)?
A: 5.03 µM

Q: And the TGI (SK-OV-3 ovarian)?
A: 24.7 µM

Q: What about the GI50 (SN12C renal) of the same molecule?
A: 2.47 µM

Q: And the TGI (SN12C renal)?
A: 12.5 µM

Q: What about the GI50 (SNB-19 CNS) of the same molecule?
A: 3.25 µM

Q: And the TGI (SNB-19 CNS)?
A: > 100 µM

Q: What about the GI50 (SNB-75 CNS) of the same molecule?
A: 10.8 µM

Q: And the TGI (SNB-75 CNS)?
A: 28.7 µM

Q: What about the GI50 (SW-620 colon) of the same molecule?
A: 2.89 µM

Q: And the TGI (SW-620 colon)?
A: 20.2 µM

Q: And the GI50 (T-47D breast)?
A: 1.69 µM

Q: What about the TGI (T-47D breast) of the same molecule?
A: 13.2 µM

Q: What about the GI50 (TK-10 renal) of the same molecule?
A: 6.96 µM

Q: And the TGI (TK-10 renal)?
A: 32.6 µM

Q: What about the GI50 (U251 CNS) of the same molecule?
A: 1.36 µM

Q: What about the TGI (U251 CNS) of the same molecule?
A: 10.2 µM

Q: What about the GI50 (UACC-257 melanoma) of the same molecule?
A: 1.18 µM

Q: What about the TGI (UACC-257 melanoma) of the same molecule?
A: 5.04 µM

Q: What about the GI50 (UACC-62 melanoma) of the same molecule?
A: 2.61 µM

Q: What about the TGI (UACC-62 melanoma) of the same molecule?
A: 14 µM

Q: What about the GI50 (UO-31 renal) of the same molecule?
A: 4.56 µM

Q: And the TGI (UO-31 renal)?
A: 21.2 µM
